Data from ChEMBL document CHEMBL6092220 (J Med Chem, 2024).
Activity calls are given as the source filed them. The calls are words filed in the database; no cut-off is given here.

Tests used:
[1] = target: T1, Protein cereblon/Signal transducer and activator of transcription 3 (Homo sapiens, UniProt P40763+Q96SW2); experiment: PROTAC activity at his-SUMO-tagged STAT3 (127 to 688 residues)/CRBN in human HeLa cells assessed as induction of STAT3 degradation incubated for 24 hrs by TECAN SPARK microplate reader analysis relative to control; format: cell-based
[2] = target: T2, Protein cereblon/Signal transducer and activator of transcription 3 (Mus musculus) (UniProt P42227+Q8C7D2); experiment: In-vivo PROTAC activity at STAT3/CRBN in female CB17 SCID mouse assessed as reduction STAT3 level liver at 10 mg/kg, iv measured at 24 hrs by Western blot analysis; format: functional, organism-based; set-up: scale not given: the % may be the effect or the level left
[3] = target: T2, Protein cereblon/Signal transducer and activator of transcription 3 (Mus musculus); experiment: In-vivo PROTAC activity at STAT3/CRBN in female CB17 SCID mouse assessed as reduction STAT3 level liver at 10 mg/kg, iv measured at 48 hrs by Western blot analysis; format: functional, organism-based; set-up: scale not given: the % may be the effect or the level left
[4] = Antiproliferative activity against human MOLM16 cells assessed as cell growth inhibition incubated for 4 days by celltiter-glo assay; format: functional, cell-based, MOLM-16; details: MOLM16, 96 h
SU-DHL-1 [5] = experiment: Antiproliferative activity against human SU-DHL-1 cells assessed as cell growth inhibition incubated for 4 days by celltiter-glo assay; format: functional, cell-based; details: SU-DHL-1, 96 h
[6] = AUC (0 to t) in ICR mouse at 5 mg/kg, iv; format: ADME, organism-based; details: in vivo
[7] = AUC (0 to t) in Sprague-Dawley rat at 5 mg/kg, iv; format: ADME, organism-based; details: in vivo
[8] = Half life in Beagle dog at 1 mg/kg, iv; format: ADME, organism-based, Canis lupus familiaris; details: in vivo
[9] = target: T3, Protein cereblon/Signal transducer and activator of transcription 1-alpha/beta (Homo sapiens, UniProt P42224+Q96SW2); experiment: PROTAC activity at STAT1/CRBN in human PBMC cells assessed as reduction in STAT1 level incubated for 20 hrs by Western blot analysis; format: cell-based
[10] = target: Protein cereblon/Signal transducer and activator of transcription 6 (Homo sapiens) (UniProt P42226+Q96SW2); experiment: PROTAC activity at STAT6/CRBN in human PBMC cells assessed as reduction in STAT6 level upto 40 uM incubated for 20 hrs by Western blot analysis; format: cell-based
[11] = Apparent permeability across basolateral to apical side in human Caco-2 cells; format: ADME, cell-based
[12] = Stability in human Hepatocyte assessed as half life; format: ADME, cell-based; details: hepatocytes
[13] = Stability in rat plasma assessed as parent compound remaining at […]; format: ADME, cell-free; details: read-out: Stability
[14] = Stability in Non human primate plasma assessed as parent compound remaining at […]; format: ADME, cell-free; details: read-out: Stability
Cytochrome P450 3A4 = Cytochrome P450 3A4 (Homo sapiens, UniProt P08684); experiment: Inhibition of CYP3A4 (unknown origin) using testosterone as substrate; format: ADME
[15] = target: T3, Protein cereblon/Signal transducer and activator of transcription 1-alpha/beta; experiment: PROTAC activity at STAT1/CRBN in human SU-DHL-1 cells assessed as reduction in STAT1 level upto 40 uM incubated for 20 hrs by Western blot analysis; format: cell-based
[16] = target: T4, Protein cereblon/Signal transducer and activator of transcription 2 (Homo sapiens) (UniProt Q96SW2+P52630); experiment: PROTAC activity at STAT2/CRBN in human SU-DHL-1 cells assessed as reduction in STAT2 level upto 40 uM incubated for 20 hrs by Western blot analysis; format: cell-based
SU-DHL-1 [17] = experiment: PROTAC activity at STAT5/CRBN in human SU-DHL-1 cells assessed as reduction in STAT5 level upto 40 uM incubated for 20 hrs by Western blot analysis; format: cell-based
[18] = target: T1, Protein cereblon/Signal transducer and activator of transcription 3; experiment: PROTAC activity at STAT3/CRBN in human MOLM16 cells assessed as reduction in STAT3 level at 340 nM incubated for 4 hrs by Western blot analysis; format: cell-based; set-up: scale not given: the % may be the effect or the level left
[19] = target: T4, Protein cereblon/Signal transducer and activator of transcription 2 (Homo sapiens); experiment: PROTAC activity at STAT2/CRBN in human MOLM16 cells assessed as reduction in STAT2 level upto 40 uM incubated for 4 hrs by Western blot analysis; format: cell-based
[20] = target: Protein cereblon/Signal transducer and activator of transcription 4 (Homo sapiens, UniProt Q96SW2+Q14765); experiment: PROTAC activity at STAT4/CRBN in human MOLM16 cells assessed as reduction in STAT4 level incubated for 4 hrs by Western blot analysis; format: cell-based
[21] = target: T1, Protein cereblon/Signal transducer and activator of transcription 3; experiment: PROTAC activity at STAT3/CRBN in human Pfeiffer cells transfected with STAT3 K658R mutant assessed as reduction in STAT3 level at 64 nM incubated for 20 hrs by Western blot analysis; format: cell-based; set-up: scale not given: the % may be the effect or the level left
[22] = target: Signal transducer and activator of transcription 1-alpha/beta (Homo sapiens, UniProt P42224); experiment: Binding affinity to STAT1 (unknown origin) by FP assay
[23] = target: Signal transducer and activator of transcription 4 (Homo sapiens, UniProt Q14765); experiment: Binding affinity to STAT4 (unknown origin) by FP assay
[24] = target: Signal transducer and activator of transcription 1-alpha/beta (Homo sapiens) (UniProt P42224); experiment: Binding affinity to STAT1 (unknown origin) assessed as maximum inhibition by FP assay relative to control
[25] = target: Signal transducer and activator of transcription 4 (Homo sapiens) (UniProt Q14765); experiment: Binding affinity to STAT4 (unknown origin) assessed as maximum inhibition by FP assay relative to control
[26] = target: T2, Protein cereblon/Signal transducer and activator of transcription 3 (Mus musculus); experiment: In-vivo PROTAC activity at STAT3/CRBN in female CB17 SCID mouse assessed as STAT3 depletion spleen at 5 mg/kg, iv measured at 1 hr by immunobloting analysis; format: functional, organism-based
[27] = Drug concentration in female CB17 SCID mouse plasma at 5 mg/kg, iv measured at 48 hrs by LC-MS/MS analysis; format: ADME, organism-based
[28] = Drug concentration in female CB17 SCID mouse liver at 5 mg/kg, iv measured at 3 hrs by LC-MS/MS analysis; format: ADME, organism-based; details: read-out: Ct
[29] = Drug concentration in female CB17 SCID mouse liver at 5 mg/kg, iv measured at 24 hrs by LC-MS/MS analysis; format: ADME, organism-based; details: read-out: Ct
[30] = Drug concentration in female CB17 SCID mouse liver at 5 mg/kg, iv measured at 48 hrs by LC-MS/MS analysis; format: ADME, organism-based; details: read-out: Ct
[31] = Drug concentration in female CB17 SCID mouse spleen at 5 mg/kg, iv measured at 3 hrs by LC-MS/MS analysis; format: ADME, organism-based; details: read-out: Ct
[32] = Drug concentration in female CB17 SCID mouse spleen at 5 mg/kg, iv measured at 24 hrs by LC-MS/MS analysis; format: ADME, organism-based; details: read-out: Ct
[33] = Drug concentration in female CB17 SCID mouse spleen at 5 mg/kg, iv measured at 72 hrs by LC-MS/MS analysis; format: ADME, organism-based; details: read-out: Ct
[34] = Drug concentration in female CB17 SCID mouse tumor at 5 mg/kg, iv measured at 3 hrs by LC-MS/MS analysis; format: ADME, organism-based, Neoplasm; details: read-out: Ct
[35] = Antitumor activity against human MOLM16 cells xenografted in mouse assessed as tumor regression at 5 mg/kg, iv; format: functional, MOLM-16
[36] = Antitumor activity against human MOLM16 cells xenografted in mouse assessed as tumor growth inhibition at 10 mg/kg, iv; format: functional, MOLM-16; details: read-out: TGI

Question: Which Emax [1] does the source give for COC(=O)N1CC[C@H]2CC[C@@H](C(=O)N[C@@H](CCC(N)=O)C(=O)N[C@@H](Cc3ccc(F)c(F)c3)C(=O)N3CCC(CCC#Cc4cccc5c4CN(C4CCC(=O)NC4=O)C5=O)CC3)N2C(=O)[C@@H](NC(=O)c2cc3cc(C(F)(F)P(=O)(O)O)ccc3s2)C1 (some centres not stated) here?
Answer: Its Emax is 84%.

Question: What about the Activity [2] of the same molecule?
Answer: Its Activity is > 90%.

Question: What about the Activity [3] of the same molecule?
Answer: The Activity was > 90%.

Question: What about the IC50 [4] of the same molecule?
Answer: The IC50 was 38 nM.

Question: And the IC50 (SU-DHL-1 [5])?
Answer: The IC50 was 430 nM.

Question: And the AUC(0-t) [6]?
Answer: The AUC(0-t) was 859 µg·h/mL.

Question: What about the AUC(0-t) [7] of the same molecule?
Answer: The AUC(0-t) was 59.5 µg·h/mL.

Question: What about the half-life [8] of the same molecule?
Answer: The half-life was 2.3 h.

Question: What about the DC50 [9] of the same molecule?
Answer: The DC50 was 1600 nM.

Question: What about the Activity [10] of the same molecule?
Answer: Its Activity is “inactive”.

Question: And the Papp [11]?
Answer: Its Papp is 0.13 10^-6 cm/s.

Question: And the t1/2 [12]?
Answer: The t1/2 was > 2 h.

Question: What about the remaining at 2 h [13] of the same molecule?
Answer: Its remaining at 2 h is 94%.

Question: What about the remaining at 2 h [14] of the same molecule?
Answer: The remaining at 2 h was 101%.

Question: What about the IC50 (Cytochrome P450 3A4) of the same molecule?
Answer: The IC50 was > 10000 nM.

Question: And the Activity [15]?
Answer: The Activity was “inactive”.

Question: What about the Activity [16] of the same molecule?
Answer: The Activity was “inactive”.

Question: And the Activity (SU-DHL-1 [17])?
Answer: Its Activity is “inactive”.

Question: What about the Activity [18] of the same molecule?
Answer: Its Activity is 100%.

Question: What about the Activity [19] of the same molecule?
Answer: Its Activity is “inactive”.

Question: And the Activity [20]?
Answer: Its Activity is “inactive”.

Question: What about the Activity [21] of the same molecule?
Answer: The Activity was > 90%.

Question: And the IC50 [22]?
Answer: Its IC50 is 270 nM.

Question: And the IC50 [23]?
Answer: The IC50 was 360 nM.

Question: What about the Imax [24] of the same molecule?
Answer: Its Imax is 100%.

Question: And the Imax [25]?
Answer: The Imax was 100%.

Question: What about the Activity [26] of the same molecule?
Answer: Its Activity is > 70%.

Question: And the concentration at 48 h [27]?
Answer: Its concentration at 48 h is 12400 ng/mL.

Question: What about the concentration at 3 h [28] of the same molecule?
Answer: Its concentration at 3 h is 3850 ng/g.

Question: And the concentration at 24 h [29]?
Answer: The concentration at 24 h was 1250 ng/g.

Question: And the concentration at 48 h [30]?
Answer: The concentration at 48 h was 1130 ng/g.

Question: What about the concentration at 3 h [31] of the same molecule?
Answer: The concentration at 3 h was 1920 ng/g.

Question: What about the concentration at 24 h [32] of the same molecule?
Answer: The concentration at 24 h was 868 ng/g.

Question: What about the concentration at 72 h [33] of the same molecule?
Answer: Its concentration at 72 h is 568 ng/g.

Question: What about the concentration at 3 h [34] of the same molecule?
Answer: Its concentration at 3 h is 2830 ng/g.

Question: What about the Activity [35] of the same molecule?
Answer: The Activity was 76%.

Question: And the inhibition in vivo at 10 mg/kg [36]?
Answer: The inhibition in vivo at 10 mg/kg was 54%.
